Measurements taken from publication PMC7956625, “Optimization and Anti-Cancer Properties of Fluoromethylketones as Covalent Inhibitors for Ubiquitin C-Terminal Hydrolase L1” (Molecules, 2021).
Where a chain is given by its changes, count along the chain named. Where a SMILES comes first, the peptide text is derived from it. The star is where a group is joined. Cbz = O=C(OCc1ccccc1)*; CH2F = FC*

Tests used:
[1] = molecular target: T1, UCHL3 (Homo sapiens, UniProt P15374); parameters: His (N); made in house; method as in PMID 22617491; conditions: concentrations up to 400 µM; cited from earlier work
T1 sequence (P15374 1-230): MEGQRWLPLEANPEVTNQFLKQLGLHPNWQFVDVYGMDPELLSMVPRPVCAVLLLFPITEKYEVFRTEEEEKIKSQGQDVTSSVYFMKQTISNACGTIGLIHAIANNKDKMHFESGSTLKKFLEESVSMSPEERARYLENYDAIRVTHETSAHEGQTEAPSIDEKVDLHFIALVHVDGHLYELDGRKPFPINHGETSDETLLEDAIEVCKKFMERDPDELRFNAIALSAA

[2] = molecular target: T2, WT-UCHL1 (Homo sapiens, UniProt P09936); assay: Mass spectrometry analysis of 34 adducts on UCHL1; assay type: binding; conditions: WT-UCHL1 + 34 (1:1)
T2 construct: His (N); made in house
T2 sequence (P09936 1-223): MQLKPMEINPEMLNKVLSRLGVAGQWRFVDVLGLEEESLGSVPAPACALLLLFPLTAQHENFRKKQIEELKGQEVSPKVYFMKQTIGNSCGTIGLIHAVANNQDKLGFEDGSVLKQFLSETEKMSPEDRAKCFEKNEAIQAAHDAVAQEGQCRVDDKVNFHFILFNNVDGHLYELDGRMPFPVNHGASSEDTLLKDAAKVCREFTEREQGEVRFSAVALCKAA
Protocol: (§1) A common shortcoming to covalent inhibitors is that the reactive electrophilic groups may partake in non-specific labeling of off-target cysteines. To investigate if alternative cysteines are affected on UCHL1 we used analog 34 to confirm that the fluoromethylketone derivatives only conjugate Cys90. […] Additionally, samples were analyzed by mass spectrometry to increase sensitivity for detection of any non-Cys90 adducts. […]
(§2) Solutions containing 10 µM recombinant UCHL1^WT or UCHL1^C90A (from pET15b) (49 µL) was incubated with either 10 µM or 20 µM inhibitor for 3 h at room temperature in PBS starting block buffer (Thermo Scientific # 37538). To quench reaction, chilled acetone was added to the sample to achieve an overall 80% acetone solution. After overnight storage at −20 °C, suspension was centrifuged at 14,000× g at 4 °C for 15 min. Supernatant was discarded, and pellet was dried by vacuum centrifugation for 1 h. Pellet was reconstituted in 50/50 water/acetonitrile with 0.1% formic acid. 25 pmol per sample was analyzed by LC/MS (Agilent 1260 Infinity II with a ZORBAX Rapid Resolution High Definition 300Å Stable Bond C3, 2.1 × 100 mm, 1.8 µm column) attached to an Agilent 6129 quadrupole mass spectrometer in positive ion mode.
(§3) The column was held at 45 °C. Mobile solution A was 0.1% formic acid in water, and mobile phase B was 0.1% formic acid in acetonitrile. The gradient used was hold at 5% B for 5 min, increase linearly to […] for 10, and then hold at 95% B for 5 min. The mass data were collected at a range of 500–1000 m/z.
(§4) Raw data were processed using MestReNova. For all samples, the deconvoluted mass was calculated with a charged state range from 27 to 36, m/z range of 670–900 Da, and deconvoluted mass range from 25,000–26,000 Da. […] For C90A mutant, this abundance threshold was lowered to 5% to detect the presence of any reacted protein. 34 adduct is expected to be +486.00 Da after displacement of fluorine.

[3] = molecular target: T3, UCHL1 C90A (Homo sapiens, UniProt P09936, C90A); assay: Mass spectrometry analysis of 34 adducts on UCHL1; assay type: binding
T3 construct: His (N); made in house
T3 sequence (P09936 1-223 C90A): T2 sequence (P09936 1-223) with C90A
Protocol: as §1, §2, §3, §4

[4] = system: SW1271 cells; assay: Click reaction and in-gel fluorescence of treated SW1271 cells; assay type: cell-based; conditions: 100 µM, 4 h
Protocol: Leveraging the alkyne handle, a click reaction was performed with an azide containing sulfo-cyanine5 fluorophore (Cy5) to visualize proteins within the cells that were conjugated to either the fluoromethylketone 34 or the chloromethylketone 37. Cells were pretreated with either analog then harvested and washed to removed unreacted inhibitor. The cells were then lysed and the click reaction was performed on lysates. […] Further evaluation using proteomic profiling is warranted to gain a quantitative understanding on the potential for non-specificity at off-target cysteines.
Cells were treated with 100 µM inhibitor or DMSO for 4 h before being washed, scraped, and lysed in 200 µL of lysis buffer (1× PBS, 1% v/v Triton X-100, 0.1% w/v SDS, 1X HALT) for 30 min on ice with vigorous vortexing every 10 min. Samples were then pelleted at 17,000× g for 10 min before collecting the supernatant and measuring concentration using BCA. Samples were normalized to 2 mg/mL and stored at −80 °C overnight. The following day, samples were thawed. While thawing, a click cocktail was prepared (for each sample, the cocktail consists of: 3 µL of 1.7 mM THPTA in 1:4 tBuOH/DMSO, 1 µL of 50 mM CuSO4 in water, 1 µL of 1.25 mM Cy5-N3 in DMSO, and 1 µL of 50 mM TCEP in water freshly prepared). […] The samples were then analyzed by SDS-PAGE and imaged on a Licor Odyssey and subsequently Coomassie stained.

Row | Compound | activity toward UCHL3 [1] | Adduct(s) Observed (Da) [2] | Adduct(s) Observed (Da) ([3]; UCHL1 C90A + 34 (1:1)) | Adduct(s) Observed (Da) ([3]; UCHL1 C90A + 34 (1:2)) | proteins labelled in SW1271 cells (Cy5 click, in-gel fluorescence) [4]
1 | COC(=O)CC[C@H](NC(=O)[C@H](C)NC(=O)[C@@H](NC(=O)OCc1ccccc1)C(C)C)C(=O)CF [Cpd 1, benzyloxycarbonyl-Val-Ala-Glu(γ-methoxy)-fluoromethylketone] (Cbz-Val-Ala-Glu(OMe)-CH2F) | not possess any activity | – | – | – | –
2 | C#Cc1ccc(COC(=O)N[C@H](C(=O)N[C@@H](C)C(=O)N[C@@H](CCC(=O)OC)C(=O)CF)C(C)C)cc1 [Cpd 34] | – | +486.00 Da | none | no adducts observed and none | high selectivity in cells
